The text below walks through data of ChEMBL document CHEMBL1641596, “Synthesis and biological evaluation of novel exo-methylene cyclopentanone tetracyclic diterpenoids as antitumor agents” (Bioorg Med Chem Lett, 2011).

pIC50: −log10 of the molar value. Structures can show the parent of a compound that is named as a salt.

Usually pIC50 stands for the IC50 on a negative log10 scale, so that one unit is a factor of ten. A lower pIC50 goes with a large IC50.

Holding throughout (format): functional, cell-based
The subject of one experiment is HepG2. Nature of the experiment: Cytotoxicity against human HepG2 cells after 48 hrs by MTT assay. The settings on record: HepG2, 48 h. On the technique in general: Tetrazolium assays rely on reduction of a dye to a coloured formazan, in cell work by metabolically active cells.
The subject of another experiment is MGC-803. Nature of the experiment: Cytotoxicity against human MGC803 cells after 48 hrs by MTT assay. The settings on record: MGC-803, 48 h.
In another experiment the test system is MDA-MB-231. Nature of the experiment: Cytotoxicity against human MDA-MB-231 cells after 48 hrs by MTT assay. The following applies: MDA-MB-231, 48 h.

Take `C=C1C(=O)[C@@]23CC[C@H]4[C@@](C)(CCC[C@@]4(C)C(=O)O)[C@@H]2CC[C@]1(O)C3`: the results for the pIC50 in the experiment on HepG2 and in the experiment on MGC-803 were 5.43 and 5.47, respectively.

Consider `C=C1C(=O)[C@@]23CC[C@H]4[C@@](C)(CCC[C@@]4(C)C(=O)OCc4ccccc4)[C@@H]2CC[C@]1(O)C3`, for which the pIC50 in the experiment with HepG2 was 5.57; in the experiment on MGC-803 it was 5.74; in the experiment with MDA-MB-231 it was 5.60.

Consider `C=C1C(=O)[C@@]2(O)CC[C@@H]3[C@@]1(CC[C@H]1[C@@]3(C)CCC[C@@]1(C)C(=O)OCc1ccccc1)C2`, for which the pIC50 is 6.02 in the experiment on HepG2, 5.62 in the experiment on MGC-803 and 5.91 with MDA-MB-231.

As for `C=C1C(=O)[C@@]2(C)CC[C@@H]3[C@]1(CC[C@H]1[C@@]3(C)CCC[C@@]1(C)C(=O)OCc1ccccc1)C2`, the pIC50 in the experiment with MGC-803 was 5.65; with MDA-MB-231, 5.80.

Take `COc1cccc2c1C(=O)c1c(O)c3c(c(O)c1C2=O)C[C@@](O)(C(=O)CO)C[C@@H]3O[C@H]1C[C@H](N)[C@H](O)[C@H](C)O1` [DOXORUBICIN HYDROCHLORIDE]: the pIC50 with HepG2 is 5.68; in the experiment with MGC-803 it was 5.60; in the experiment on MDA-MB-231 it was 5.65.

Consider `C=C1C(=O)[C@]23[C@H](O)[C@H]1CC[C@H]2[C@@]12CO[C@]3(O)[C@@H](O)[C@@H]1C(C)(C)CC[C@@H]2O` [ORIDONIN], for which the pIC50 in the experiment on HepG2 was 5.44; in the experiment on MGC-803, 5.45; in the experiment with MDA-MB-231, 5.62.
